Experimental data taken from DBAASP.
In brackets after ≈: the same amount, converted by molar mass. Several values for one entry are separate records, joined by “and”; a condition that tells them apart may be missing. Equal values may be shown once.

Experiments:
Assay in all cases: ≥ marks a high value that may be exact or a test limit, other limits are often not marked, values filed in µg/mL are converted to µM
[1] = system: Trichosporon beigelii KCTC 7707
[2] = system: Candida albicans KCTC 7270
[3] = system: Aspergillus fumigatus KCTC 6145
[4] = system: Candida krusei CCARM 14017
[5] = system: Aspergillus flavus KCTC 6905
[6] = system: Fusarium verticillioides KCTC 6149
[7] = system: Candida parapsilosis CCARM 14016
[8] = system: Candida tropicalis KCTC 7221
[9] = system: Micrococcus luteus A270
[10] = system: Candida albicans MDM8
[11] = system: Candida tropicalis IOC 4560
[12] = system: Staphylococcus epidermidis ATCC 12228
[13] = system: Bacillus megaterium ATCC 10778
[14] = system: Escherichia coli SBS 363
[15] = system: Serratia marcescens ATCC 4112
[16] = system: Staphylococcus aureus ATCC 29213
[17] = system: Enterobacter cloacae beta-12
[18] = system: Klebsiella pneumoniae ATCC BAA-1705
[19] = system: Escherichia coli W3110
[20] = system: Candida tropicalis CGMCC 2.1975
[21] = system: Candida albicans CGMCC 2.2086
[22] = system: Escherichia coli UB1005
[23] = system: Lacticaseibacillus rhamnosus 7469
[24] = system: Salmonella enterica subsp. enterica serovar Typhimurium C77-31
[25] = system: Escherichia coli K88
[26] = system: Candida parapsilosis CGMCC 2.3989
[27] = system: Pseudomonas aeruginosa ATCC 27853
[28] = system: Staphylococcus aureus ATCC 25923
[29] = system: Salmonella enterica subsp. enterica serovar Typhimurium ATCC 14028
[30] = system: Pseudomonas aeruginosa PAO1
[31] = system: Escherichia coli 078
[32] = system: Escherichia coli 987P
[33] = system: Escherichia coli ATCC 25922
[34] = system: Escherichia coli K99
[35] = system: Lactiplantibacillus plantarum 8014
[36] = system: Bacillus subtilis ATCC 6633

CC[C@H](C)[C@H](NC(=O)CNC(=O)[C@H](CCC(N)=O)NC(=O)[C@H](C)NC(=O)[C@@H](NC(=O)[C@H](CCCCN)NC(=O)[C@H](CCCCN)NC(=O)[C@H](CC(C)C)NC(=O)[C@H](C)NC(=O)[C@H](CC(N)=O)NC(=O)[C@H](CC(C)C)NC(=O)CN)C(C)C)C(=O)N[C@@H](Cc1cnc[nH]1)C(=O)N[C@@H](CCC(=O)O)C(=O)N[C@@H](C)C(=O)N[C@@H](C)C(=O)N[C@@H](CCCCN)C(=O)N[C@@H](CC(C)C)C(=O)N[C@H](C(=O)N[C@@H](CC(N)=O)C(=O)N[C@@H](CC(N)=O)C(=O)N[C@@H](Cc1cnc[nH]1)C(=O)N[C@H](C(=O)N[C@@H](CCC(N)=O)C(N)=O)C(C)C)[C@@H](C)CC [GLNALKKVAQGIHEAAKLINNHVQ]
MIC [1]: 1.5 µM and 1 µM
MIC [2]: 4 µM and 8 µM
MIC [3]: ≥ 32 µM and 16 µM
MIC [4]: 6 µM and 8 µM
MIC [5]: ≥ 32 µM and 16 µM
MIC [6]: ≥ 32 µM
MIC [7]: ≥ 64 µM
MIC [8]: 2 µM and 1 µM

CC(C)C[C@H](NC(=O)[C@H](C)NC(=O)CNC(=O)[C@H](CC(C)C)NC(=O)[C@@H](N)CCCCN)C(=O)N[C@@H](Cc1c[nH]c2ccccc12)C(=O)N[C@@H](CC(N)=O)C(=O)N[C@H](C(=O)N[C@@H](C)C(=O)N[C@@H](CCCCN)C(=O)N[C@@H](CO)C(=O)N[C@H](C(=O)N[C@@H](Cc1ccccc1)C(N)=O)C(C)C)C(C)C [KLGALWNVAKSVF]
MIC [9]: 6.3 µM (≈ 9.02 µg/mL)
MIC [10]: 3.1 µM (≈ 4.44 µg/mL)
MIC [11]: 6.3 µM (≈ 9.02 µg/mL)
MIC [12]: > 50 µM
MIC [13]: 6.3 µM (≈ 9.02 µg/mL)
MIC [14]: ≥ 50 µM
MIC [15]: 6.3 µM (≈ 9.02 µg/mL)
MIC [16]: 50 µM (≈ 71.6 µg/mL)
MIC [17]: ≥ 50 µM

CC[C@H](C)[C@H](N)C(=O)N[C@@H](Cc1c[nH]c2ccccc12)C(=O)N[C@@H](Cc1c[nH]c2ccccc12)C(=O)N[C@@H](C)C(=O)N[C@@H](CCCCN)C(=O)N[C@@H](Cc1c[nH]c2ccccc12)C(=O)NCC(=O)N[C@@H](CC(C)C)C(=O)N[C@@H](CCCCN)C(=O)N[C@@H](CC(C)C)C(=O)N[C@@H](CC(C)C)C(=O)N[C@@H](CCCN=C(N)N)C(=O)N[C@@H](Cc1ccc(O)cc1)C(=O)N[C@@H](CCCN=C(N)N)C(=O)N[C@@H](CCCN=C(N)N)C(=O)N[C@@H](Cc1c[nH]c2ccccc12)C(=O)N[C@@H](Cc1ccc(O)cc1)C(=O)O [IWWAKWGLKLLRYRRWY]
MIC [18]: 4 µM (≈ 9.58 µg/mL)
MIC [19]: 1 µM (≈ 2.39 µg/mL)

CC[C@H](C)[C@H](N)C(=O)N[C@@H](Cc1cnc[nH]1)C(=O)N[C@@H](Cc1cnc[nH]1)C(=O)N[C@H](C(=O)N[C@@H](Cc1cnc[nH]1)C(=O)N[C@@H](Cc1cnc[nH]1)C(=O)N[C@@H](Cc1cnc[nH]1)C(N)=O)[C@@H](C)CC [IHHIHHH]
MIC [20]: ≥ 64 µM
MIC [21]: ≥ 64 µM
MIC [22]: ≥ 64 µM
MIC [23]: ≥ 64 µM
MIC [24]: ≥ 64 µM
MIC [25]: ≥ 64 µM
MIC [26]: ≥ 64 µM
MIC [27]: > 64 µM
MIC [28]: 64 µM (≈ 59.5 µg/mL)
MIC [12]: > 64 µM
MIC [29]: > 64 µM
MIC [30]: > 64 µM
MIC [31]: ≥ 64 µM
MIC [32]: ≥ 64 µM
MIC [16]: > 64 µM
MIC [33]: > 64 µM
MIC [34]: ≥ 64 µM
MIC [35]: ≥ 64 µM

CC[C@H](C)[C@H](NC(=O)[C@H](C)NC(=O)[C@H](CCC(=O)O)NC(=O)[C@H](Cc1cnc[nH]1)NC(=O)[C@H](C)NC(=O)CNC(=O)[C@H](CCC(N)=O)NC(=O)[C@H](Cc1ccccc1)NC(=O)[C@@H](NC(=O)[C@H](CCCCN)NC(=O)[C@H](CCCCN)NC(=O)[C@H](CC(C)C)NC(=O)[C@H](C)NC(=O)[C@H](CC(N)=O)NC(=O)[C@H](CC(C)C)NC(=O)CN)C(C)C)C(=O)N[C@@H](CCCCN)C(=O)N[C@@H](CC(C)C)C(=O)N[C@@H](C)C(=O)N[C@@H](CC(N)=O)C(=O)N[C@@H](CC(N)=O)C(=O)N[C@@H](Cc1cnc[nH]1)C(=O)N[C@H](C(=O)N[C@@H](CCC(N)=O)C(N)=O)C(C)C [GLNALKKVFQGAHEAIKLANNHVQ]
MIC [1]: 6 µM and 2 µM
MIC [2]: 8 µM and 16 µM
MIC [4]: 8 µM (≈ 20.8 µg/mL)
MIC [5]: ≥ 64 µM
MIC [6]: ≥ 64 µM
MIC [7]: ≥ 64 µM
MIC [8]: 2 µM (≈ 5.2 µg/mL)

CC(C)C[C@H](NC(=O)[C@H](C)NC(=O)CNC(=O)[C@H](CC(C)C)NC(=O)[C@@H](N)Cc1ccccc1)C(=O)N[C@@H](Cc1c[nH]c2ccccc12)C(=O)N[C@@H](CC(N)=O)C(=O)N[C@H](C(=O)N[C@@H](Cc1ccccc1)C(=O)N[C@@H](CCCCN)C(=O)N[C@@H](CO)C(=O)N[C@H](C(=O)N[C@@H](Cc1ccccc1)C(N)=O)C(C)C)C(C)C [FLGALWNVFKSVF]
MIC [9]: 0.8 µM (≈ 1.22 µg/mL)
MIC [36]: 0.8 µM (≈ 1.22 µg/mL)
MIC [10]: 6.3 µM (≈ 9.62 µg/mL)
MIC [11]: 1.6 µM (≈ 2.44 µg/mL)
MIC [27]: > 50 µM
MIC [13]: 1.6 µM (≈ 2.44 µg/mL)
MIC [14]: 3.1 µM (≈ 4.73 µg/mL)
MIC [15]: 0.4 µM (≈ 0.611 µg/mL)
MIC [16]: 0.8 µM (≈ 1.22 µg/mL)
MIC [17]: ≥ 50 µM

CC[C@H](C)[C@H](N)C(=O)N[C@@H](Cc1c[nH]c2ccccc12)C(=O)N[C@@H](Cc1c[nH]c2ccccc12)C(=O)N[C@@H](C)C(=O)N[C@@H](CCCCN)C(=O)N[C@@H](Cc1c[nH]c2ccccc12)C(=O)NCC(=O)N[C@@H](CC(C)C)C(=O)N[C@@H](CCCCN)C(=O)N[C@@H](Cc1c[nH]c2ccccc12)C(=O)N[C@@H](CC(C)C)C(=O)N[C@@H](CCCN=C(N)N)C(=O)N[C@@H](Cc1ccc(O)cc1)C(=O)N[C@@H](CCCN=C(N)N)C(=O)N[C@@H](CCCN=C(N)N)C(=O)N[C@H](C(=O)N[C@@H](Cc1ccc(O)cc1)C(=O)O)[C@@H](C)CC [IWWAKWGLKWLRYRRIY]
MIC [18]: 16 µM (≈ 38.3 µg/mL)
MIC [19]: 2 µM (≈ 4.79 µg/mL)
